Source: US20260242404A1, “INTERGLYCAN ESTERS OF SUCROSE DICARBOXYLATE AND FRUCTOFURANURONATE, PROCESS FOR THE MANUFACTURE THEREOF, AND USE THEREOF AS A HYPOGLYCEMIC SLOW SUGAR” (priority 2022, published 2026)

How the values were obtained:
[1] = tested on: blood sugar (glucose levels in the blood); experiment: Glycemic index by oral induced hyperglycemia protocol (HGPVO / OGTT); format: in vivo; details: analyses repeated on two subjects, traditional commercial white sugar as control (FIG. 9)
[2] = tested on: HbA1c; experiment: HbA1c level calculated from average blood sugar level; format: in vivo; details: HbA1C 7% = 1.5 g/L average blood sugar, 1% HbA1C = 0.30 g/litre
From the text: Its consumption is therefore intended for healthy subjects and also for type 2 diabetics. […] For the new natural white granulated or powdered slow sugar of this invention the following result is obtained: [formula] For traditional white commercial sugar and for comparison purposes we obtain the following result: [formula]

OC[C@H]1O[C@@](CO)(O[C@H]2O[C@H](CO)[C@@H](O)[C@H](O)[C@H]2O)[C@@H](O)[C@@H]1O [commercial white natural sugar, sucrose]
glycemic index, in words [1]: very high | increases HbA1c level by [2]: 9.2%
